{"source": "patent US20230414654A1", "about": "“METHODS OF TREATING COPPER METABOLISM-ASSOCIATED DISEASES OR DISORDERS” (Alexion Pharmaceuticals, Inc., priority 2020, published 2023)", "key": {"[1]": {"test": "Mobilization of copper from tissue (Studies 106, 201, 203)", "conditions": "Study 106, Study 201 (BC-TTM); Study 203 (SoC)"}, "[2]": {"conditions": "cited from earlier work"}, "[3]": {"conditions": "in vivo; cited from earlier work"}, "participants with WD": {"system": "participants with WD", "conditions": "for participants considered successfully treated (NCC/NCCcorrected primary endpoint): by Week 24; for participants considered successful (primary endpoint): last assessment of Extension Period", "protocol": "This study was conducted in US and European sites. […] A total of 28 participants were enrolled and treated (10 in Cohort 1 [treatment experienced] and 18 in Cohort 2 [treatment naïve or minimally treated]). One participant was enrolled in Cohort 2 but not treated.\nNCC levels within or above the normal reference range at enrollment were required. […] Dosing was individualized, guided by NCC levels (adjusted for molybdenum plasma concentration) and safety data. The primary efficacy endpoint was related to the proportion of successful participants, i.e., the proportion of participants who achieved plasma “free” copper control or improvement from baseline.\nDue to small sample size and data variability, the median values for the weighted averages of the doses will be cited throughout.\nThe primary endpoint in study 201 was the change in NCC/NCCcorrected from baseline to Week 24.\nIn Study 201, 12-hour dense PK/PD samples for plasma total molybdenum and copper were collected on Day 1, Week 12, and Week 24. Plasma samples for assessing “free” copper were also collected at 0, 4, and 8 hours during those visits and assayed for LBC concentrations. For the purpose of comparison across Studies 106 and 201, FIG. 3 has super-imposed LBC/total copper ratios-time profiles within the 12-hour time window after dosing from both studies."}}, "note": "Like-named read-outs stand apart in the source and are kept apart here. Marks after values point to notes of the source that are not given here."}
{"compound": "CC(C)(S)[C@@H](N)C(=O)O", "note": "[Penicillamine, (2S)-2-amino-3-methyl-3-sulfanylbutanoic acid]", "values": [{"measurement": "Mobilization of Copper from Tissue", "setting": "[1]", "result": "No (Study 203)"}]}
{"compound": "NCCNCCNCCN", "note": "[Trientine, N-[2-(2-aminoethylamino)ethyl]ethane-1,2-diamine]", "values": [{"measurement": "Cu-Binding Selectivity", "setting": "[2]", "result": "Cu^2+, and other"}, {"measurement": "Mobilization of Copper from Tissue", "setting": "[1]", "result": "No"}]}
{"compound": "[Zn]", "note": "[Zinc, zinc]", "values": [{"measurement": "Route of Copper Elimination", "setting": "[3]", "result": "Non-absorbed"}, {"measurement": "Mobilization of Copper from Tissue", "setting": "[1]", "result": "No (Study 203)"}]}
{"compound": "Bis-choline tetrathiomolybdate [BC-TTM]", "values": [{"measurement": "drop of LTC Ratio (LBC/total copper) from baseline", "setting": "participants with WD; Day 1, 4 hours post dose, weighted average dose 30 mg", "result": "~30", "unit": "%"}, {"measurement": "nadir drop of LTC Ratio compared to Day 1 pre-dose baseline", "setting": "participants with WD; Week 24, 4 hours post-dose, weighted average dose 35.8 mg", "result": "~50", "unit": "%"}, {"measurement": "reduction of mean serum non-ceruloplasmin-bound Cu (NCC)", "setting": "participants with WD; Week 24 compared with baseline, 28 patients with WD, monotherapy", "result": 72, "unit": "%"}, {"measurement": "reduction of pre-dose LTC Ratio compared to Day 1 pre-dose baseline", "setting": "participants with WD; Week 24 pre-dose, weighted average dose 35.8 mg", "result": "~30", "unit": "%"}, {"measurement": "participants considered successfully treated (NCC/NCCcorrected primary endpoint)", "setting": "participants with WD; Cohort 1 (treatment experienced)", "result": 90.0, "unit": "%"}, {"measurement": "participants considered successfully treated (NCC/NCCcorrected primary endpoint)", "setting": "participants with WD; Cohort 2 (treatment naïve or minimally treated)", "result": 83.3, "unit": "%"}, {"measurement": "paradoxical neurological worsening upon treatment initiation", "setting": "participants with WD; in vivo", "result": "No paradoxical neurological worsening was observed"}, {"measurement": "patients with reversible liver function test elevations", "setting": "participants with WD; in vivo", "result": 39, "unit": "%"}, {"measurement": "tolerability", "setting": "participants with WD; in vivo", "result": "generally well-tolerated"}, {"measurement": "participants considered successful (primary endpoint)", "setting": "participants with WD; Cohort 1", "result": 90.0, "unit": "%"}, {"measurement": "participants considered successful (primary endpoint)", "setting": "participants with WD; Cohort 2", "result": 83.3, "unit": "%"}, {"measurement": "participants considered successful (primary endpoint)", "setting": "participants with WD; all participants", "result": 85.7, "unit": "%"}, {"measurement": "time of maximum plasma total copper concentration post dose", "setting": "healthy participants; 15 mg or 60 mg single dose", "result": "8 to 12", "unit": "h"}, {"measurement": "maximum median increase of plasma total copper from baseline", "setting": "healthy participants; 8-12 hours post dose", "result": "26-34%"}, {"measurement": "median plasma LBC as % of pre-dose baseline concentration", "setting": "healthy participants; 12-24 hours post dose, combined ethnicity and dose data", "result": "80-90%"}, {"measurement": "median plasma LBC nadir as % of pre-dose baseline concentration", "setting": "healthy participants; 3 hours post dose, combined ethnicity and dose data", "result": "50-70%"}, {"measurement": "percentage of plasma LBC relative to plasma total copper (AUEC)", "setting": "healthy participants; after administration, all participants, both ethnicities and doses pooled", "result": 7, "unit": "%"}, {"measurement": "time at which median plasma LBC returned to baseline", "setting": "healthy participants; after dose", "result": 10, "unit": "days"}, {"measurement": "maximum individual plasma LBC concentration", "setting": "healthy participants; after single 15 mg dose", "result": 2.79, "unit": "µM"}, {"measurement": "maximum individual plasma total copper concentration", "setting": "healthy participants; after single 15 mg dose", "result": 23.0, "unit": "µM"}, {"measurement": "maximum individual plasma LBC concentration", "setting": "healthy participants; after single 60 mg dose", "result": 2.93, "unit": "µM"}, {"measurement": "maximum individual plasma total copper concentration", "setting": "healthy participants; after single 60 mg dose", "result": 21.7, "unit": "µM"}, {"measurement": "dose proportionality of plasma total molybdenum Cmax and AUC", "setting": "healthy participants; human, in vivo", "result": "less than dose-proportionally"}, {"measurement": "time to maximum plasma molybdenum (Tmax)", "setting": "healthy participants; human, in vivo", "result": 5, "unit": "h"}, {"measurement": "delay of maximum plasma total copper after maximum plasma total molybdenum", "setting": "healthy participants; in vivo", "result": "3 to 7", "unit": "h"}, {"measurement": "plasma molybdenum anticipated to be in the form of TPCs", "setting": "healthy participants; in vivo", "result": "approximately 96%"}, {"measurement": "time at which total copper concentrations had returned to predose baseline", "setting": "healthy participants; post dose", "result": 240, "unit": "h"}, {"measurement": "Cu-Binding Selectivity", "setting": "[2]", "result": "Cu^+ and Cu^2+*"}, {"measurement": "Route of Copper Elimination", "setting": "[3]", "result": "Biliary/fecal"}, {"measurement": "Mobilization of Copper from Tissue", "setting": "[1]", "result": "Yes (Study 106;"}]}
